Laboratory results reported in US11000033B2, “Ketone or oxime compound, and herbicide” (NISSAN CHEMICAL CORPORATION, priority 2014, dated 2021).

Key:
Assay type in all cases: in vivo
[1] = test system: Echinochloa oryzacola Vasing.; experiment: Test Example 1: herbicidal activity, application before weed generation in submerged conditions (symbol A); settings: application herbicide amount 320 g/ha
Summary of the method: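 In a flooded pot test with alluvial soil, the emulsion-formulated compound was diluted with water to a predetermined amount and applied to the floodwater immediately on the sowing day. Pots were held in a greenhouse at 25–30 °C for 3 weeks before each weed was rated.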

Scirpus juncoides = experiment: Test Example 2: herbicidal activity, application during weed generation in submerged conditions (symbol B); settings: Table 23; application herbicide amount 320 g/ha; grade 0-5 by criteria of Test Example 1
Summary of the method: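 Weeds emerging under flooded conditions were treated with compound formulated as an emulsion and diluted with water to the intended herbicide amount, poured onto the surface of 4 cm standing water. Seeds had been co-sown in alluvial soil; plants grew at 25° C. to 30° C. and were assessed after 3 weeks.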

Cyperus difformis = experiment: Test Example 3: herbicidal effect by foliage application, Wagner pot (symbol E); settings: application herbicide amount 320 g/ha; for E herbicidal effect grade: Table 24
Summary of the method: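 Alluvial soil was flooded to a depth of 0.1–0.5 cm, seeded with the weeds and rice, and kept in a greenhouse at 25–30 °C. After 14 days of growth, the foliage received a small-sprayer application of emulsion diluted to the intended rate; injury was rated at 3 weeks.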

[2] = test system: Echinochloa crus-galli var. crus-galli; experiment: Test Example 4: herbicidal effect by soil treatment (symbol H)
Summary of the method: (§1)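 Seeds were sown in sterilized diluvial soil, covered with about 1.5 cm of soil, and the soil surface was sprayed with a water-diluted emulsion of the compound at a predetermined rate. Plants grew in a greenhouse at 25° C. to 30° C.; effects were scored visually 3 weeks after application.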

Amaranthus retroflexus [3] = experiment: Test Example 4: herbicidal effect by soil treatment (symbol N)
Summary of the method: as §1

Galium spurium = experiment: Test Example 4: herbicidal effect by soil treatment (symbol Q)
Excerpt: Herbicidal Effect Test by Soil Treatment
Sterilized diluvial soil was placed in a plastic box having a length of 21 cm, a width of 13 cm, and a depth of 7 cm. Each of the seeds of Digitaria ciliaris, Setaria viridis, Echinochloa crus-galli var. crus-galli, Avena fatua, Alopecurus myosuroides, Lolium multiflorum Lam., Apera spica-venti, Abutilon theophrasti, Amaranthus retroflexus, Chenopodium album, Stellaria media, Galium spurium, Veronica persica, corn, soybean, rice, wheat, beet, and rapeseed was sowed in a spot-like manner and was covered with the soil of a thickness of about 1.5 cm. Subsequently, the emulsion agent of the compound present invention prepared in accordance with Formulation Example 2 was diluted with water so as to be a predetermined herbicide amount and the diluted emulsion agent was uniformly applied to the surface of the soil with a small-size spray. The plastic box was placed in a greenhouse of 25° C. to 30° C. to grow plant. 3 weeks later from the herbicide application, the effect to each plant was investigated in accordance with the criteria of Test Example 1.

corn = experiment: Test Example 4: effect on crop by soil treatment (symbol c); settings: for c: corn, effect grade on crop: 320 g/ha
Summary of the method: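 Diluvial soil (sterilized) in boxes; seeds placed spot-wise alongside weed species; ~1.5 cm covering soil. Greenhouse, 25–30° C.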

rapeseed = experiment: Test Example 4: effect on crop by soil treatment (symbol g); settings: for g: rapeseed, effect grade on crop: 320 g/ha
Summary of the method: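 Soil-treatment setup: crop and weed seeds were spot-sown into sterilized diluvial soil, then buried beneath approximately 1.5 cm of it, and the boxes were housed in a 25–30° C. greenhouse.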

Avena fatua = experiment: Test Example 5: herbicidal effect by foliage application, plastic box (symbol I); settings: 320 g/ha, 3 weeks after application
Summary of the method: (§2)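 Leaf-applied emulsion, water-diluted to a preset herbicide dose, on two-week-old seedlings raised in a 25° C. to 30° C. greenhouse; injury rated at 3 weeks using earlier criteria.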

Lolium multiflorum Lam. = experiment: Test Example 5: herbicidal effect by foliage application, plastic box (symbol K); settings: 320 g/ha, 3 weeks after application
Summary of the method: as §2

Apera spica-venti = experiment: Test Example 5: herbicidal effect by foliage application, plastic box (symbol L); settings: 320 g/ha, 3 weeks after application
Summary of the method: as §2

Abutilon theophrasti = experiment: Test Example 5: herbicidal effect by foliage application, plastic box (symbol M); settings: 320 g/ha, 3 weeks after application
Summary of the method: as §2

Amaranthus retroflexus [4] = experiment: Test Example 5: herbicidal effect by foliage application, plastic box (symbol N); settings: 320 g/ha, 3 weeks after application
Summary of the method: as §2

Stellaria media = experiment: Test Example 5: herbicidal effect by foliage application, plastic box (symbol P); settings: 320 g/ha, 3 weeks after application
Summary of the method: as §2

Veronica persica = experiment: Test Example 5: herbicidal effect by foliage application, plastic box (symbol R); settings: 320 g/ha, 3 weeks after application
Summary of the method: as §2

[5] = application herbicide amount 320 g/ha

SMILES	A (Echinochloa oryzacola Vasing.) herbicidal effect grade [1]	Herbicidal effect grade, B: Scirpus juncoides (Scirpus juncoides)	E herbicidal effect grade (Cyperus difformis)	Herbicidal effect grade, H: Echinochloa crus-galli var. crus-galli [2, 5]	Herbicidal effect grade, N: Amaranthus retroflexus (Amaranthus retroflexus [3]; [5])	Herbicidal effect grade, Q: Galium spurium (Galium spurium; [5])	Effect on crop grade, c: corn (corn; [5])	Effect on crop grade, g: rapeseed (rapeseed; [5])	I: Avena fatua, herbicidal effect grade (Avena fatua)	K: Lolium multiflorum Lam., herbicidal effect grade (Lolium multiflorum Lam.)	L: Apera spica-venti, herbicidal effect grade (Apera spica-venti)	M: Abutilon theophrasti, herbicidal effect grade (Abutilon theophrasti)	N: Amaranthus retroflexus, herbicidal effect grade (Amaranthus retroflexus [4])	P: Stellaria media, herbicidal effect grade (Stellaria media)	R: Veronica persica, herbicidal effect grade (Veronica persica)	Herbicidal effect grade, A: Echinochloa oryzacola Vasing. [1]	herbicidal effect on E, grade 0-5 (Cyperus difformis)	H: Echinochloa crus-galli var. crus-galli, herbicidal effect grade ([2]; 320 g/ha)	N: Amaranthus retroflexus, herbicidal effect grade (Amaranthus retroflexus [3]; 320 g/ha)	Q: Galium spurium, herbicidal effect grade (Galium spurium; 320 g/ha)	further results
CC#Cc1cc(C)c(C2=C(O)CC(CC(=NOCCOC)C3CC3)C2=O)c(C)c1 (stereo not drawn) [9-021]	5 (Herbicidal ratio of 90% or more (almost completely withered))	5 (Herbicidal ratio of 90% or more (almost completely withered))	5 (Herbicidal ratio of 90% or more (almost completely withered))	5 (Herbicidal ratio of 90% or more (almost completely withered))	0 (Herbicidal ratio of 5% or lower (almost no effect))	0 (Herbicidal ratio of 5% or lower (almost no effect))	3 (Herbicidal ratio of 40% or higher and lower than 70%)	2 (Herbicidal ratio of 20% or higher and lower than 40%)	4 (Herbicidal ratio of 70% or higher and lower than 90%)	5 (Herbicidal ratio of 90% or more (almost completely withered))	5 (Herbicidal ratio of 90% or more (almost completely withered))	2 (Herbicidal ratio of 20% or higher and lower than 40%)	2 (Herbicidal ratio of 20% or higher and lower than 40%)	1 (Herbicidal ratio of 5% or higher and lower than 20%)	4 (Herbicidal ratio of 70% or higher and lower than 90%)						
Cc1cc(Br)cc(C)c1C1=C(O)CC(CC(=NOCC(F)(F)F)C2CC2)C1=O (stereo not drawn) [9-009]	4 (Herbicidal ratio of 70% or higher and lower than 90%)	0 (Herbicidal ratio of 5% or lower (almost no effect))	4 (Herbicidal ratio of 70% or higher and lower than 90%)	0 (Herbicidal ratio of 5% or lower (almost no effect))	0 (Herbicidal ratio of 5% or lower (almost no effect))	0 (Herbicidal ratio of 5% or lower (almost no effect))	0 (Herbicidal ratio of 5% or lower (almost no effect))	0 (Herbicidal ratio of 5% or lower (almost no effect))	5 (Herbicidal ratio of 90% or more (almost completely withered))	5 (Herbicidal ratio of 90% or more (almost completely withered))	5 (Herbicidal ratio of 90% or more (almost completely withered))	0 (Herbicidal ratio of 5% or lower (almost no effect))	0 (Herbicidal ratio of 5% or lower (almost no effect))	0 (Herbicidal ratio of 5% or lower (almost no effect))	0 (Herbicidal ratio of 5% or lower (almost no effect))						
CON=C(C)CC1CC(OC(=O)c2cnoc2C2CC2)=C(c2c(C)cc(C)cc2C)C1=O (stereo not drawn) [1-103]		4 (Herbicidal ratio of 70% or higher and lower than 90%)														5 (Herbicidal ratio of 90% or more (almost completely withered))	5 (Herbicidal ratio of 90% or more (almost completely withered))	5 (Herbicidal ratio of 90% or more (almost completely withered))	5 (Herbicidal ratio of 90% or more (almost completely withered))	0 (Herbicidal ratio of 5% or lower (almost no effect))	c: corn, effect grade on crop (corn): 5 (Herbicidal ratio of 90% or more (almost completely withered)); g: rapeseed, effect grade on crop (rapeseed): 3 (Herbicidal ratio of 40% or higher and lower than 70%); I: Avena fatua, herbicidal effect (criteria 0-5) (Avena fatua): 5 (Herbicidal ratio of 90% or more (almost completely withered)); K: Lolium multiflorum Lam., herbicidal effect (criteria 0-5) (Lolium multiflorum Lam.): 5 (Herbicidal ratio of 90% or more (almost completely withered)); L: Apera spica-venti, herbicidal effect (criteria 0-5) (Apera spica-venti): 5 (Herbicidal ratio of 90% or more (almost completely withered)); M: Abutilon theophrasti, herbicidal effect (criteria 0-5) (Abutilon theophrasti): 4 (Herbicidal ratio of 70% or higher and lower than 90%); N: Amaranthus retroflexus, herbicidal effect (criteria 0-5) (Amaranthus retroflexus [4]): 0 (Herbicidal ratio of 5% or lower (almost no effect)); P: Stellaria media, herbicidal effect (criteria 0-5) (Stellaria media): 2 (Herbicidal ratio of 20% or higher and lower than 40%); R: Veronica persica, herbicidal effect (criteria 0-5) (Veronica persica): 3 (Herbicidal ratio of 40% or higher and lower than 70%)
CON=C(C)CC1CC(OC(=O)c2cc(C)on2)=C(c2c(C)cc(C)cc2C)C1=O (stereo not drawn) [1-100]		5 (Herbicidal ratio of 90% or more (almost completely withered))														5 (Herbicidal ratio of 90% or more (almost completely withered))	5 (Herbicidal ratio of 90% or more (almost completely withered))	5 (Herbicidal ratio of 90% or more (almost completely withered))	2 (Herbicidal ratio of 20% or higher and lower than 40%)	0 (Herbicidal ratio of 5% or lower (almost no effect))	c: corn, effect grade on crop (corn): 5 (Herbicidal ratio of 90% or more (almost completely withered)); g: rapeseed, effect grade on crop (rapeseed): 3 (Herbicidal ratio of 40% or higher and lower than 70%); I: Avena fatua, herbicidal effect (criteria 0-5) (Avena fatua): 5 (Herbicidal ratio of 90% or more (almost completely withered)); K: Lolium multiflorum Lam., herbicidal effect (criteria 0-5) (Lolium multiflorum Lam.): 5 (Herbicidal ratio of 90% or more (almost completely withered)); L: Apera spica-venti, herbicidal effect (criteria 0-5) (Apera spica-venti): 5 (Herbicidal ratio of 90% or more (almost completely withered)); M: Abutilon theophrasti, herbicidal effect (criteria 0-5) (Abutilon theophrasti): 4 (Herbicidal ratio of 70% or higher and lower than 90%); N: Amaranthus retroflexus, herbicidal effect (criteria 0-5) (Amaranthus retroflexus [4]): 0 (Herbicidal ratio of 5% or lower (almost no effect)); P: Stellaria media, herbicidal effect (criteria 0-5) (Stellaria media): 0 (Herbicidal ratio of 5% or lower (almost no effect)); R: Veronica persica, herbicidal effect (criteria 0-5) (Veronica persica): 3 (Herbicidal ratio of 40% or higher and lower than 70%)
CON=C(CC1CC(OC(=O)C(C)(C)C)=C(c2c(C)cc(C)cc2OC)C1=O)C1CC1 (mixture of isomers) [13-006]	5 (Herbicidal ratio of 90% or more (almost completely withered))	3 (Herbicidal ratio of 40% or higher and lower than 70%)	5 (Herbicidal ratio of 90% or more (almost completely withered))						5 (Herbicidal ratio of 90% or more (almost completely withered))	5 (Herbicidal ratio of 90% or more (almost completely withered))	5 (Herbicidal ratio of 90% or more (almost completely withered))	4 (Herbicidal ratio of 70% or higher and lower than 90%)	3 (Herbicidal ratio of 40% or higher and lower than 70%)	3 (Herbicidal ratio of 40% or higher and lower than 70%)	2 (Herbicidal ratio of 20% or higher and lower than 40%)						H: Echinochloa crus-galli var. crus-galli, herbicidal effect grade [2, 5]: 5 (Herbicidal ratio of 90% or more (almost completely withered)); N: Amaranthus retroflexus, herbicidal effect grade (Amaranthus retroflexus [3]; [5]): 0 (Herbicidal ratio of 5% or lower (almost no effect)); Q: Galium spurium, herbicidal effect grade (Galium spurium; [5]): 0 (Herbicidal ratio of 5% or lower (almost no effect)); c: corn, effect on crop grade (corn; [5]): 1 (Herbicidal ratio of 5% or higher and lower than 20%); g: rapeseed, effect on crop grade (rapeseed; [5]): 3 (Herbicidal ratio of 40% or higher and lower than 70%)
